Experimental data published in US20260028365A1 (BIOGEN MA INC., priority 2022, published 2026).
Where two headings read alike, the source gives them in different places.

Legend:
JH2 domain of human Tyk2 = JH2 domain of human Tyk2 (Homo sapiens (Human), UniProt P29597); assay: JH2 Biochemical Assay (TR-FRET probe displacement); format: binding
JAK1 = JAK1 (Homo sapiens (Human), UniProt P23458); assay: pSTAT3 Cell Assay (MSD, TF1 cells); format: cell-based
Method in brief: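 Readout is pSTAT3 in lysates, quantified on an MSD plate assay using anti-STAT3 antibodies. Before lysis, TF1 cells had been serum-starved, exposed to compound for 1 hour across ten four-fold dilutions starting at 10 μM, and given IL-6 for 15 minutes.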

JAK2 = JAK2 (Homo sapiens (Human), UniProt O60674); assay: pSTAT5 Cell Assay (MSD, TF1 cells); format: cell-based
Method in brief: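 Serum-starved TF1 cells were pretreated with compound for 1 h (10-point four-fold series from 10 μM), then stimulated with 30 ng/mL IL-3 for 15 min. pSTAT5 in lysates was measured by MSD immunoassay. IC50 came from a 4-parameter logistic fit.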

Tyk2 = Tyk2 (Homo sapiens (Human), UniProt P29597); assay: pSTAT4 Cell Assay (MSD, NK92 cells); format: cell-based
[1] = TR-FRET probe displacement, JH2 domain of human Tyk2
[2] = JH2 domain of human Tyk2, TR-FRET probe displacement
[3] = TR-FRET probe displacement, JH2 domain

Chain of Tyk2 (P29597 whole entry, the tested form may be a part): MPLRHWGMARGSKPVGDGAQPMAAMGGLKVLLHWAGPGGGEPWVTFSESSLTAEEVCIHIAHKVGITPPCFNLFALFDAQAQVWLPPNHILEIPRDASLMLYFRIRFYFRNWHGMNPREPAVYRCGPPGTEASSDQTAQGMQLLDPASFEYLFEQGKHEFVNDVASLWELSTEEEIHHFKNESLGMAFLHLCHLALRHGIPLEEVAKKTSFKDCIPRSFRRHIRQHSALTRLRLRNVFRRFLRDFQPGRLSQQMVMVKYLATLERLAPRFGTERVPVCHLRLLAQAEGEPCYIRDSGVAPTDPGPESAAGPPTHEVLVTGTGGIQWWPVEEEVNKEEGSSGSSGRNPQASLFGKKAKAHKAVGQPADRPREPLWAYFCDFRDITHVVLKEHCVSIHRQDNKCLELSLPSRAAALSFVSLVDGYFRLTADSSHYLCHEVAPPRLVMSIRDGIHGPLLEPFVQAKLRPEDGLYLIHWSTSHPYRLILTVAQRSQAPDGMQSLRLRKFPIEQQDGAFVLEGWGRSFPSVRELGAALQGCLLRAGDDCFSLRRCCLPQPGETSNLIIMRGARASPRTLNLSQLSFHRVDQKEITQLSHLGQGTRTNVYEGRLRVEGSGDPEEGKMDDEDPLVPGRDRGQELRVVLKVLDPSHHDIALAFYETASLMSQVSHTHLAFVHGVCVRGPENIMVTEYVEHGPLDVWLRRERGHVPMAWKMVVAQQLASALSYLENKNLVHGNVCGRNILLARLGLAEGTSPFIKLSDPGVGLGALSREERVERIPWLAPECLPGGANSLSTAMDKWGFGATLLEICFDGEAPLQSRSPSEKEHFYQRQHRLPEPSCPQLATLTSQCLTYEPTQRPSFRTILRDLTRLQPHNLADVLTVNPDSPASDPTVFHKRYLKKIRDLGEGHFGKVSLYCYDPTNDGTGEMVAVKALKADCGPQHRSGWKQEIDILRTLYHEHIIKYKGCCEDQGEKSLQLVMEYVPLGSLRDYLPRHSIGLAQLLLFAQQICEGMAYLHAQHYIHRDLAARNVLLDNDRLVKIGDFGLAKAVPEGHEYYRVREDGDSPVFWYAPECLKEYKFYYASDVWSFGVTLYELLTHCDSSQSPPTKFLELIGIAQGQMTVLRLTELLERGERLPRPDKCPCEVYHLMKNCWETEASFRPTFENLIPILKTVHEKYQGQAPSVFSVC
Chain of JAK1 (P23458 whole entry): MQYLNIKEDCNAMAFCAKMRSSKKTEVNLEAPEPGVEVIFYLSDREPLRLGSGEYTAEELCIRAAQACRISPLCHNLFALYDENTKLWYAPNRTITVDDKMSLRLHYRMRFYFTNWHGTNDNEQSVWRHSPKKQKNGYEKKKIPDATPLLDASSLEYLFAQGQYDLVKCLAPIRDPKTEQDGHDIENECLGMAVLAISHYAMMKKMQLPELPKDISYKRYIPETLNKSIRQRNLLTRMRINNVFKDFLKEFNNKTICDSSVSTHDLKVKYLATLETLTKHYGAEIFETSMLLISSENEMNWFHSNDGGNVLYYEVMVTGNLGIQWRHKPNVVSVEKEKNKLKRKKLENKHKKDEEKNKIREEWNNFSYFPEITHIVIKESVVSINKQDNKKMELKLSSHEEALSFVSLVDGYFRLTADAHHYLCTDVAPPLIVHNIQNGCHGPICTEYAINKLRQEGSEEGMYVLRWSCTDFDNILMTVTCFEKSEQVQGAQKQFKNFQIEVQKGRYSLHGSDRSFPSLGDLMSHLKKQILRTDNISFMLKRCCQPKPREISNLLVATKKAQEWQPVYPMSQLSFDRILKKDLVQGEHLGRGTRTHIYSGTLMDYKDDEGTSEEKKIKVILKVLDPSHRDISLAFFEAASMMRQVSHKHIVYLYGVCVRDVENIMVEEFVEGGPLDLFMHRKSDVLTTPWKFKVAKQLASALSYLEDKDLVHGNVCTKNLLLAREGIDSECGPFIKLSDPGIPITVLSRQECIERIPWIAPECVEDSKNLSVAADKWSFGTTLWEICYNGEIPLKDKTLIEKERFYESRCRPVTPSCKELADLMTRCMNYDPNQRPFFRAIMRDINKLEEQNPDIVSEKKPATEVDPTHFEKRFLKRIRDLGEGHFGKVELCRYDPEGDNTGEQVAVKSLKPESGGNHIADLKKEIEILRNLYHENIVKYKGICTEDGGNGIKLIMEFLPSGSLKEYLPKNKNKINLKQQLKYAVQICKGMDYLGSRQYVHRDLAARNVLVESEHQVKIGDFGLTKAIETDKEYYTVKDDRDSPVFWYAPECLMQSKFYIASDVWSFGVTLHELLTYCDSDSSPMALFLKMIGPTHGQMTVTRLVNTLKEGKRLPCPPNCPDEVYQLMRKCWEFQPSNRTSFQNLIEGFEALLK
Chain of JAK2 (O60674 whole entry): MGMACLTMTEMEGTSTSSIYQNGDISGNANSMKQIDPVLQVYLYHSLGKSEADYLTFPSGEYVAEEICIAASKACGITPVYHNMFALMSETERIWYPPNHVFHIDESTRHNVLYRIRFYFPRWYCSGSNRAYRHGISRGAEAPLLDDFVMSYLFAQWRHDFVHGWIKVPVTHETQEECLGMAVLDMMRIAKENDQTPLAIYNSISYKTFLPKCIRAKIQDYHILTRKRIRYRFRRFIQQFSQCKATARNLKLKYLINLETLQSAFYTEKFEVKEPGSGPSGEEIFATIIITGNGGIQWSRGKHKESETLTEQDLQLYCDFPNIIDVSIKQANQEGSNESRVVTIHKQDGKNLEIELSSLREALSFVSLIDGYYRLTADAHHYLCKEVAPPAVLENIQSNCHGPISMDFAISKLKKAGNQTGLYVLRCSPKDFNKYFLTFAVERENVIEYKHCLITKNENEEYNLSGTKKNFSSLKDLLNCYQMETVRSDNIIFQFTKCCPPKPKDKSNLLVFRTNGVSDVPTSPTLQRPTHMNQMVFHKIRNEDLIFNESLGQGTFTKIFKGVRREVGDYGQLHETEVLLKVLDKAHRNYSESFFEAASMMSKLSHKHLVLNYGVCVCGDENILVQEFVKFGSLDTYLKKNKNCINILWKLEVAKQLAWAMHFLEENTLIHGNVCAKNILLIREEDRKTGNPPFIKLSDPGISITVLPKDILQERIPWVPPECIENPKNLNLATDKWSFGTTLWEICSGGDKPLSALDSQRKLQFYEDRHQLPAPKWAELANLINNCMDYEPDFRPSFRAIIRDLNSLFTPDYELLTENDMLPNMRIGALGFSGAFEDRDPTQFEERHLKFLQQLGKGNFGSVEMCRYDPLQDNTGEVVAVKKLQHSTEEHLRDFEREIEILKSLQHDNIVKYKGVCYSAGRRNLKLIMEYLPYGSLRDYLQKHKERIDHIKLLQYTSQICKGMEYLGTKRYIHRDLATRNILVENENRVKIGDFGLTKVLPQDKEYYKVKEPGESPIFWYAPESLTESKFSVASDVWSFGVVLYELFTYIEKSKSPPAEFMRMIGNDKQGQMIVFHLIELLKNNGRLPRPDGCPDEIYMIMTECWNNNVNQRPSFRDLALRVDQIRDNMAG
Chain of JH2 domain of human Tyk2 (P29597 575-876): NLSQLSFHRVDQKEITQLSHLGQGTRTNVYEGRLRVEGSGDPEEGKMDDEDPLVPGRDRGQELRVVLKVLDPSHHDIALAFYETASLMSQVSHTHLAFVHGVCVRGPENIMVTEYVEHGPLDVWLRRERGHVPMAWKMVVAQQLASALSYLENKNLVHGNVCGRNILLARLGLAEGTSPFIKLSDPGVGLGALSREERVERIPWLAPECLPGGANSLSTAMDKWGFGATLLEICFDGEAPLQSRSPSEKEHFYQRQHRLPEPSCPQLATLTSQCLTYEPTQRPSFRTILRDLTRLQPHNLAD

SMILES | IC50 (JH2 domain of human Tyk2; [1]) [µM] | IC50 (JAK1; IL-6 stimulation, MSD) [µM] | IC50 (JAK2; IL-3 stimulation, MSD) [µM] | IC50 (Tyk2; MSD) [µM] | IC50 (JH2 domain of human Tyk2; [2]) [µM] | IC50 (JAK1; IL-6 stimulated, MSD) [µM] | IC50 (JAK2; IL-3 stimulated, MSD) [µM] | IC50 (JH2 domain of human Tyk2; [3]) [µM] | IC50 (JAK1; IL-6 stimulated) [µM] | IC50 (JAK2; IL-3 stimulated) [µM] | IC50 (Tyk2) [µM]
COCCn1ncc(-c2cnc(NC(C)=O)cc2Nc2cc(C)nc(C(C)(F)F)n2)n1 [Example 260, N-(4-((2-(1,1-difluoroethyl)-6-methylpyrimidin-4-yl)amino)-5-(2-(2-methoxyethyl)-2H-1,2,3-triazol-4-yl)pyridin-2-yl)acetamide] | ≤ 0.01 | ≥ 1 | ≥ 1 | ≤ 0.01 | – | – | – | – | – | – | –
CC(=O)Nc1cc(Nc2cc(C)nc(C(C)(F)F)n2)c(-c2ccncn2)cn1 [Example 270, N-(4-((2-(1,1-difluoroethyl)-6-methylpyrimidin-4-yl)amino)-5-(pyrimidin-4-yl)pyridin-2-yl)acetamide] | ≤ 0.01 | ≥ 1 | ≥ 1 | ≤ 0.01 | – | – | – | – | – | – | –
CCOc1cnc(NC(C)=O)cc1Nc1cc(OC)nc(C(C)(F)F)n1 [Example 5, N-(4-((2-(1,1-difluoroethyl)-6-methoxypyrimidin-4-yl)amino)-5-ethoxypyridin-2-yl)acetamide] | ≤ 0.01 | ≥ 1 | ≥ 1 | 0.01 to 0.1 | – | – | – | – | – | – | –
COCc1cccc(-c2cnc(NC(C)=O)cc2Nc2cc(C)nc(C(C)(F)F)n2)n1 [Example 636, N-(4′-((2-(1,1-difluoroethyl)-6-methylpyrimidin-4-yl)amino)-6-(methoxymethyl)-[2,3′-bipyridin]-6′-yl)acetamide] | – | – | – | ≤ 0.01 | ≤ 0.01 | ≥ 1 | ≥ 1 | – | – | – | –
CCc1cc(Nc2cc(NC(C)=O)ncc2-c2ccncn2)nc(C(C)(F)F)n1 [Example 799, N-(4-((2-(1,1-difluoroethyl)-6-ethylpyrimidin-4-yl)amino)-5-(pyrimidin-4-yl)pyridin-2-yl)acetamide] | – | – | – | – | – | – | – | ≤ 0.01 | ≥ 1 | ≥ 1 | ≤ 0.01
COc1cnc(NC(C)=O)cc1Nc1cc(C2CC2)nc(C(C)(F)F)n1 [Example 17, N-(4-((6-cyclopropyl-2-(1,1-difluoroethyl)pyrimidin-4-yl)amino)-5-methoxypyridin-2-yl)acetamide] | ≤ 0.01 | ≥ 1 | ≥ 1 | 0.01 to 0.1 | – | – | – | – | – | – | –
CC(=O)Nc1cc(Nc2cc(C)nc(C(C)(F)F)n2)c(O)cn1 [Example 486, N-(4-((2-(1,1-difluoroethyl)-6-methylpyrimidin-4-yl)amino)-5-hydroxypyridin-2-yl)acetamide] | – | – | – | ≥ 1 | 0.01 to 0.1 | ≥ 1 | ≥ 1 | – | – | – | –
CC(=O)Nc1cc(Nc2cc(OC3CC3)nc(C(C)(F)F)n2)c(OCC2CCCO2)cn1 (stereo not shown) [Example 139, N-(4-((6-cyclopropoxy-2-(1,1-difluoroethyl)pyrimidin-4-yl)amino)-5-((tetrahydrofuran-2-yl)methoxy)pyridin-2-yl)acetamide] | ≤ 0.01 | ≥ 1 | ≥ 1 | ≤ 0.01 | – | – | – | – | – | – | –
COCCOc1cnc(NC(C)=O)cc1Nc1cc(C(C)C)nc(C(C)(F)F)n1 [Example 300, N-(4-((2-(1,1-difluoroethyl)-6-isopropylpyrimidin-4-yl)amino)-5-(2-methoxyethoxy)pyridin-2-yl)acetamide] | ≤ 0.01 | ≥ 1 | ≥ 1 | ≤ 0.01 | – | – | – | – | – | – | –
CC(=O)Nc1cc(Nc2cc(C)nc(C(C)(F)F)n2)c(OC[C@H]2C[C@H]2F)cn1 (racemic) [Example 425, Cis-rac-N-(4-((2-(1,1-difluoroethyl)-6-methylpyrimidin-4-yl)amino)-5-((2-fluorocyclopropyl)methoxy)pyridin-2-yl)acetamide] | – | – | – | ≤ 0.01 | ≤ 0.01 | ≥ 1 | ≥ 1 | – | – | – | –
[2H]C([2H])([2H])Oc1cnc(NC(C)=O)cc1Nc1cc(C(C)C)nc(C(C)(F)F)n1 [Example 315, N-(4-((2-(1,1-difluoroethyl)-6-isopropylpyrimidin-4-yl)amino)-5-(methoxy-d3)pyridin-2-yl)acetamide] | ≤ 0.01 | ≥ 1 | ≥ 1 | 0.01 to 0.1 | – | – | – | – | – | – | –
CCc1cc(Nc2cc(NC(C)=O)ncc2-c2ncc(C3COCCO3)cn2)nc(C(C)(F)F)n1 (stereo not shown) [Example 840, N-(5-(5-(1,4-dioxan-2-yl)pyrimidin-2-yl)-4-((2-(1,1-difluoroethyl)-6-ethylpyrimidin-4-yl)amino)pyridin-2-yl)acetamide] | – | – | – | – | – | – | – | ≤ 0.01 | ≥ 1 | ≥ 1 | ≤ 0.01
COCCOc1cnc(NC(C)=O)cc1Nc1cc(OC2CC2)nc(C(C)(F)F)n1 [Example 298, N-(4-((6-cyclopropoxy-2-(1,1-difluoroethyl)pyrimidin-4-yl)amino)-5-(2-methoxyethoxy)pyridin-2-yl)acetamide] | ≤ 0.01 | ≥ 1 | ≥ 1 | ≤ 0.01 | – | – | – | – | – | – | –
